Data published in patent publication US11981686B2, “Urea compound having substituent” (DAIICHI SANKYO COMPANY, LIMITED, priority 2019, dated 2024).

Target: SIRT6 enzyme (Homo sapiens, UniProt Q8N6T7)
Experiment: Measurement of deacetylation activity (SIRT6, AlphaLISA, H3K9(Ac) peptide)
Format: biochemical
Conditions: SIRT6 25 ng/mL, H3K9(Ac) biotin peptide 2 nM, NAD 10 μM, room temperature 30 minutes, duplicate
Method in brief: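 SIRT6 (25 ng/mL final) in Tris-HCl pH 8.0 buffer with compound (e.g. 0.046–100 μM final) reacted with biotin-H3K9(Ac) peptide (2 nM) and NAD+ (10 μM), 30 min, room temperature. Stopped with nicotinamide plus AlphaLISA anti-unmodified H3K9/K27 beads, 60 min; EC150 (150% relative activity) from sigmoidal fit.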

SIRT6 enzyme, sequence (Q8N6T7 whole entry, species assumed): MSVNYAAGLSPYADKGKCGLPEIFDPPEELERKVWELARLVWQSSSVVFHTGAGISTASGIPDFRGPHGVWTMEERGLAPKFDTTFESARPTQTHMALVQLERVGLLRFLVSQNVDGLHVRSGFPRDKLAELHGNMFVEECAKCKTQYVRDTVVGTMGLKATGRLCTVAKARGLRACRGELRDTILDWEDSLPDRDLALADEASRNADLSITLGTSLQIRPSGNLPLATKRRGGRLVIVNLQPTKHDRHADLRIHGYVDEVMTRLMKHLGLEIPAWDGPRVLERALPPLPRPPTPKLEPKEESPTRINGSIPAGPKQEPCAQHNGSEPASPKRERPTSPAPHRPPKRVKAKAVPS

SMILES | EC150 (the concentration of the compound showing a relative enzyme activity of 150%) [μm]
CNC(=O)Nc1nc2c(s1)C1CN(C(C)=O)CC(C2)N1c1ncc(-c2cccc(Cl)c2)o1 (centres unmarked) [Example 139, N-{6-acetyl-10-[5-(3-chlorophenyl)-1,3-oxazol-2-yl]-4,5,6,7,8,9-hexahydro-4,8-epimino[1,3]thiazolo[5,4-d]azocin-2-yl}-N′-methylurea] | 0.36
O=C(Nc1nc2c(s1)[C@@H]1COC[C@H](C2)N1c1nc2cc(Cl)ccc2o1)N[C@H]1CC[C@H](O)CC1 [Example 149, N-[(4S,8S)-10-(5-chloro-1,3-benzoxazol-2-yl)-4,7,8,9-tetrahydro-5H-4,8-epiminooxocino[5,4-d] [1,3]thiazol-2-yl]-N′-[(1r,4r)-4-hydroxycyclohexyl]urea] | 0.45
COc1cccc(-c2cc(N3[C@@H]4COC[C@H]3c3sc(NC(=O)NC5CCOCC5)nc3C4)no2)n1 [Example 62, N-{(4S,8S)-10-[5-(6-methoxypyridin-2-yl)-1,2-oxazol-3-yl]-4,7,8,9-tetrahydro-5H-4,8-epiminooxocino[5,4-d][1,3]thiazol-2-yl}-N′-oxan-4-ylurea] | 2.6
O=C(Nc1nc2c(s1)CN(c1nc(C3CCC(F)(F)CC3)no1)CC2)NC1(CO)CC1 [Example 105, N-{5-[3-(4,4-difluorocyclohexyl)-1,2,4-oxadiazol-5-yl]-4,5,6,7-tetrahydro[1,3]thiazolo[5,4-c]pyridin-2-yl}-N′-[1-(hydroxymethyl)cyclopropyl]urea] | 2
C[C@@H](CO)NC(=O)Nc1nc2c(s1)[C@@H]1COC[C@H](C2)N1c1ncc(-c2cccc(OC(F)F)c2)o1 [Example 173, N-[(4S,8S)-10-{5-[3-(difluoromethoxy)phenyl]-1,3-oxazol-2-yl}-4,7,8,9-tetrahydro-5H-4,8-epiminooxocino[5,4-d][1,3]thiazol-2-yl]-N′-[(2S)-1-hydroxypropan-2-yl]urea] | 0.62
COc1ccc2oc(N3[C@@H]4COC[C@H]3c3sc(NC(=O)NC(C)(C)CO)nc3C4)nc2c1 [Example 58, N-(1-hydroxy-2-methylpropan-2-yl)-N′-[(4S,8S)-10-(5-methoxy-1,3-benzoxazol-2-yl)-4,7,8,9-tetrahydro-5H-4,8-epiminooxocino[5,4-d][1,3]thiazol-2-yl]urea] | 2.4
O=C(Nc1nc2c(s1)[C@@H]1COC[C@H](C2)N1c1cc(-c2ccc(F)cc2)on1)NC1CCS(=O)(=O)CC1 [Example 165, N-(1,1-dioxo-1λ^6-thian-4-yl)-N′-{(4S,8S)-10-[5-(4-fluorophenyl)-1,2-oxazol-3-yl]-4,7,8,9-tetrahydro-5H-4,8-epiminooxocino[5,4-d][1,3]thiazol-2-yl}urea] | 0.41
COc1cccc(-c2cnc(N3[C@@H]4COC[C@H]3c3sc(NC(=O)N[C@H]5C[C@H](O)C5)nc3C4)o2)n1 [Example 78, N-[(1r,3S)-3-hydroxycyclobutyl]-N′-{(4S,8S)-10-[5-(6-methoxypyridin-2-yl)-1,3-oxazol-2-yl]-4,7,8,9-tetrahydro-5H-4,8-epiminooxocino[5,4-d][1,3]thiazol-2-yl}urea] | 0.41
